The results in this text go back to patent US10350199B2, “3-(1h-pyrrolo[2,3-b]pyridin-2-yl)-1h-indazoles and therapeutic uses thereof” (Samumed, LLC, priority 2015, dated 2019).

Where only a bound is given, the exact number is not on record here.

Holding throughout (assay type): cell-based
Test [1] deals with IL-6 (THP-1 human monocyte cell line). Kind of test: IL-6 inhibition in LPS-stimulated THP-1 cells (HTRF). As to conditions: for EC50: IL-6 inhibition, LPS-stimulated THP-1 cells, HTRF; for inhibition at 10 µM: THP-1, read-out: percentage in parentheses beside EC50 >10 (IL-6 inhibition). How it is done:
THP-1 cells were cultured in basal media with 1% FBS for 24 hours before the start of the assay. […] THP-1 cells were plated at 5000 cells/well in the 384-well plates and incubated at 37° C. for 2 h. 500 ng/mL of LPS was added after 2 hours and cells were incubated for another 22 hours at 37° C. Plates were spun in a centrifuge for 1 minute at […] and a mixture of anti-IL6 XL665, and anti-IL6 Cryptate diluted in reconstitution buffer (Cisbio Inc.) was added to each well. Following incubation for 3 hrs at room temperature, Homogeneous Time-Resolved Fluorescence (HTRF) was measured using the Envision (Perkin Elmer) at 665 nm and […]. The ratio of fluorescence at 665 nm to 620 nm was used as a readout for IL6 quantification. All samples were processed in duplicate. Readings were normalized to DMSO treated cells and normalized activities were utilized for EC50 calculations using the dose-response log (inhibitor) vs. response -variable slope (four parameters) nonlinear regression feature available in GraphPad Prism 5.0 (or Dotmatics).
Background: TR-FRET usually uses a lanthanide donor and a delayed reading to cut background.

Test [2] relates to Wnt activity (Sp5-Luc reporter, SW480 colon carcinoma cells). The experiment in a line: Wnt activity screening assay, Sp5-Luc reporter gene in SW480 cells. Particulars: Homo sapiens; for inhibition at 10 µM: SW480, read-out: percent inhibition at 10 μM; for EC50: Sp5-Luc reporter, SW480 cells, overnight incubation. The source says:
The screening assay for Wnt activity is described as follows. Reporter cell lines can be generated by stably transducing cancer cell lines (e.g., colon cancer) or primary cells (e.g., IEC-6 intestinal cells) with a lentiviral construct that includes a Wnt-responsive promoter driving expression of the firefly luciferase gene.
SW480 colon carcinoma cells were transduced with a lentiviral vector expressing luciferase with a human Sp5 promoter consisting of a sequence of eight TCF/LEF binding sites. SW480 cells stably expressing the Sp5-Luc reporter gene and a hygromycin resistance gene were selected by treatment with 150 μg/mL of hygromycin for 7 days. These stably transduced SW480 cells were expanded in cell culture and used for all further screening activities. […] For Sp5-Luc reporter gene assays, the cells were plated at 4,000 cells/well in 384-well plates with medium containing 1% fetal bovine serum and incubated overnight at 37° C. and 5% CO2. Following incubation, 20 μl of BrightGlo luminescence reagent (Promega) was added to each well of the 384-well assay plates. The plates were placed on an orbital shaker for 2 min and then luminescence was quantified using the Envision (Perkin Elmer) plate reader. Readings were normalized to DMSO only treated cells, and normalized activities were utilized for EC50 calculations using the dose-response log (inhibitor) vs. response -variable slope (four parameters) nonlinear regression feature available in GraphPad Prism 5.0 (or Dotmatics).

In test [3] the test system is primary human fibroblasts derived from IPF patients (LL29 cells) treated with TGF-β1. The experiment in a line: Inhibition of the fibrotic process: αSMA staining in TGF-β1 treated LL29 fibroblasts. As to conditions: Fibroblast; for EC50: 96 h, LL29 cells, TGF-β1 20 ng/mL, 4 days, % αSMA positive cells; for inhibition at 10 µM: read-out: percent inhibition at 10 μM. How it is done: Representative compounds were screened using primary human fibroblasts (derived from IPF patients) treated with TGF-β1 to determine their ability to inhibit the fibrotic process.
LL29 cells are plated at 1,500 cells/well in 80 μL/well F12 medium supplemented with 1% Fetal Bovine Serum. […] Wells treated with TGF-β1 and containing DMSO were used as controls. […] Following incubation for 4 days, SYTOX green nucleic acid stain (Life Technologies [Thermo Fisher Scientific]) was added to the wells at a final concentration of 1 μM and incubated at room temperature for 30 min.

The next test deals with SW480 colon cancer cells. Kind of test: Cell viability assay (CellTiter-Blue), SW480 cells, four days. As to conditions: Homo sapiens; for EC50: 96 h, SW480 cell viability, four days, CellTiter-Blue; for inhibition at 10 µM: SW480, read-out: percent inhibition at 10 μM. How it is done:
Representative compounds were screened using the following assay procedure to assess the effect on cell viability as described below.
Approximately 2×10^3 SW480 colon cancer cells were seeded into each well and allowed to incubate in the presence or absence of compound for four days at 37° C./5% CO2. Eight replicates of DMSO-treated cells served as controls and cells treated with compound were performed in duplicate.
After incubation, 20 μL of CellTiter-Blue (Promega) was added to each well allowed to incubate for approximately 3 hours. This reagent was a buffered solution which contains resazurin, metabolically active cells were able to reduce rezarurin (blue) into resorufin (pink) which was highly fluorescent. This measured fluorescence was used as a readout for cell viability.
On the technique in general: Alamar Blue is a resazurin reagent that responds to reducing activity.

A word on the EC50: it is the concentration needed to bring the measured effect to its halfway point. A higher EC50 goes with lower potency in that assay. One may read the inhibition as the change of the read-out against control, counted positive when it falls. In the case of `c1cc(N2CCCCC2)c2cc(-c3n[nH]c4ccc(-c5cncc(CNCC6CCCC6)c5)cc34)[nH]c2n1` [Compound 193, 1-Cyclopentyl-N-((5-(3-(4-(piperidin-1-yl)-1H-pyrrolo[2,3-b]pyridin-2-yl)-1H-indazol-5-yl)pyridin-3-yl)methyl)methanamine], the concentration for a half-maximal effect (EC50) (in test [1]; in test [2]; in test [3]; in the test on SW480 colon cancer cells) was over 10 µM in each case. Further, the inhibition at 10 µM in test [1] came to 18%; in test [2], 8%; in test [3], 24.9%; in the test on SW480 colon cancer cells it was 12.5%.
Take `FC1(F)CCN(Cc2cncc(-c3ccc4[nH]nc(-c5cc6c(N7CCCCC7)ccnc6[nH]5)c4c3)c2)C1` [Compound 194, 5-(5-((3,3-Difluoropyrrolidin-1-yl)methyl)pyridin-3-yl)-3-(4-(piperidin-1-yl)-1H-pyrrolo[2,3-b]pyridin-2-yl)-1H-indazole]: the concentration giving a half-maximal response (EC50) in test [1] was over 10 µM; in test [2], over 10 µM; in test [3] it was 5.9 µM; in the test with SW480 colon cancer cells it was over 10 µM. Further, the inhibition at 10 µM in test [1] amounted to 33%; in test [2], 26.2%; in the test with SW480 colon cancer cells, 18.5%.
Take `c1cnc2[nH]c(-c3n[nH]c4ccc(-c5ccncc5)cc34)cc2c1` [Compound 270, 5-(Pyridin-4-yl)-3-(1H-pyrrolo[2,3-b]pyridin-2-yl)-1H-indazole]: the EC50 in test [1] is over 10 µM; in test [2], over 10 µM; in test [3], 6.52 µM; in the test with SW480 colon cancer cells, over 10 µM. In addition, the inhibition at 10 µM in test [1] is 48.3%; in test [2], 45.7%; in the test on SW480 colon cancer cells, 15.2%.
On to `c1ncc(-c2ccc3[nH]nc(-c4cc5c(-c6ccsc6)ccnc5[nH]4)c3c2)cn1` [Compound 307, 5-(Pyrimidin-5-yl)-3-(4-(thiophen-3-yl)-1H-pyrrolo[2,3-b]pyridin-2-yl)-1H-indazole], for which the half-maximal effective concentration (EC50) (in test [1]; in test [2]; in test [3]; in the test with SW480 colon cancer cells) was over 10 µM each time. The inhibition at 10 µM in test [1] came out at 45.5%; in test [2] it was 6%; in test [3], 0%; in the test with SW480 colon cancer cells, 0%.
In the case of `CN(C)Cc1cncc(-c2ccc3[nH]nc(-c4cc5c(-c6ccoc6)ccnc5[nH]4)c3c2)c1` [Compound 321, 1-(5-(3-(4-(Furan-3-yl)-1H-pyrrolo[2,3-b]pyridin-2-yl)-1H-indazol-5-yl)pyridin-3-yl)-N,N-dimethylmethanamine], the EC50 is over 10 µM in test [1], over 10 µM in test [2], 1.37 µM in test [3] and over 10 µM with SW480 colon cancer cells. Besides, the inhibition at 10 µM in test [1] was 19%; in test [2], 3.7%; in the test on SW480 colon cancer cells it was 7.9%.
Turning to `c1ccc(-c2ccc3[nH]nc(-c4cc5c(-c6ccoc6)ccnc5[nH]4)c3c2)nc1` [Compound 336, 3-(4-(Furan-3-yl)-1H-pyrrolo[2,3-b]pyridin-2-yl)-5-(pyridin-2-yl)-1H-indazole], the EC50 (in test [1]; in test [2]; in test [3]; in the test with SW480 colon cancer cells) was over 10 µM throughout. In addition, the inhibition at 10 µM in test [1] was 45.1%; in test [2] it was 11%; in test [3] it was 0%; with SW480 colon cancer cells it was 0%.
`CC(C)CC(=O)Nc1cncc(-c2ccc3[nH]nc(-c4cc5c(-c6cccs6)ccnc5[nH]4)c3c2)c1` [Compound 338, 3-Methyl-N-(5-(3-(4-(thiophen-2-yl)-1H-pyrrolo[2,3-b]pyridin-2-yl)-1H-indazol-5-yl)pyridin-3-yl)butanamide]: the half-maximal effective concentration (EC50) in test [1] worked out at 0.047 µM; in test [2], 0.332 µM; in test [3], 0.58 µM; in the test on SW480 colon cancer cells it was 0.747 µM.
On to `CC(C)(C)C(=O)Nc1cncc(-c2ccc3[nH]nc(-c4cc5c(-c6cccs6)ccnc5[nH]4)c3c2)c1` [Compound 344, N-(5-(3-(4-(Thiophen-2-yl)-1H-pyrrolo[2,3-b]pyridin-2-yl)-1H-indazol-5-yl)pyridin-3-yl)pivalamide], for which the EC50 is 0.053 µM in test [1], 0.215 µM in test [2], over 10 µM in test [3] and 0.606 µM with SW480 colon cancer cells. In addition, the inhibition at 10 µM in test [3] is 0%.
In the case of `CN(C)Cc1cncc(-c2ccc3[nH]nc(-c4cc5c(-c6cccs6)ccnc5[nH]4)c3c2)c1` [Compound 349, N,N-Dimethyl-1-(5-(3-(4-(thiophen-2-yl)-1H-pyrrolo[2,3-b]pyridin-2-yl)-1H-indazol-5-yl)pyridin-3-yl)methanamine], the 50% effective concentration (EC50) came out at 0.091 µM in test [1], 3.85 µM in test [2], 0.874 µM in test [3] and 4.64 µM in the test with SW480 colon cancer cells.
Take `CC(C)(C)CC(=O)Nc1cncc(-c2ccc3[nH]nc(-c4cc5c(-c6cccs6)ccnc5[nH]4)c3c2)c1` [Compound 352, 3,3-Dimethyl-N-(5-(3-(4-(thiophen-2-yl)-1H-pyrrolo[2,3-b]pyridin-2-yl)-1H-indazol-5-yl)pyridin-3-yl)butanamide]: the EC50 in test [1] was 0.073 µM; in test [2], 0.432 µM; in test [3], 0.355 µM; in the test on SW480 colon cancer cells it was 0.872 µM.
`CCCC(=O)Nc1cncc(-c2ccc3[nH]nc(-c4cc5c(-c6cccs6)ccnc5[nH]4)c3c2)c1` [Compound 353, N-(5-(3-(4-(Thiophen-2-yl)-1H-pyrrolo[2,3-b]pyridin-2-yl)-1H-indazol-5-yl)pyridin-3-yl)butyramide]: the EC50 was over 10 µM in test [1], 0.04 µM in test [2], 5.08 µM in test [3] and 1.3 µM in the test with SW480 colon cancer cells. In addition, in test [1], the inhibition at 10 µM was determined as 37.5%.
For `c1ccc(-c2ccc3[nH]nc(-c4cc5c(-c6cccs6)ccnc5[nH]4)c3c2)nc1` [Compound 364, 5-(Pyridin-2-yl)-3-(4-(thiophen-2-yl)-1H-pyrrolo[2,3-b]pyridin-2-yl)-1H-indazole], the EC50 in test [1] was 1.57 µM; in test [2], 3.38 µM; in test [3] it was 2.2 µM; in the test on SW480 colon cancer cells it was 1.14 µM.
As for `Fc1ccc(-c2ccnc3[nH]c(-c4n[nH]c5ccc(C6=CCNCC6)cc45)cc23)cc1` [Compound 522, 3-(4-(4-Fluorophenyl)-1H-pyrrolo[2,3-b]pyridin-2-yl)-5-(1,2,3,6-tetrahydropyridin-4-yl)-1H-indazole], the EC50 in test [1] is over 10 µM; in test [2], 3.25 µM; in test [3] it was 3.86 µM; in the test on SW480 colon cancer cells it was over 10 µM. The inhibition at 10 µM stood at 48.7% in test [1] and 19.2% in the test with SW480 colon cancer cells.
On to `CN(C)CCOc1cncc(-c2ccc3[nH]nc(-c4cc5c(-c6ccc(F)cc6)ccnc5[nH]4)c3c2)c1` [Compound 531, 2-((5-(3-(4-(4-Fluorophenyl)-1H-pyrrolo[2,3-b]pyridin-2-yl)-1H-indazol-5-yl)pyridin-3-yl)oxy)-N,N-dimethylethan-1-amine], for which the EC50 (in test [1]; in test [2]; in test [3]; with SW480 colon cancer cells) was over 10 µM in each case. The inhibition at 10 µM in test [1] was found to be 0%; in test [2], 2.3%; in test [3], 15.6%; in the test on SW480 colon cancer cells, 4.1%.
